Measurements taken from patent US20060025430A1, “Novel irreversible inhibitors of epidermal growth factor receptor tyrosine kinase and uses thereof for therapy and diagnosis” (priority 2003, published 2006).
pIC50: −log10 of the molar value.

What was measured:
Assay type in all cases: cell-based
EGFR-TK = target: T1, EGFR-TK (Homo sapiens, UniProt P00533); test: EGFR-TK autophosphorylation inhibition in intact A431 cells (irreversibility assay, Western blot); conditions: inhibitor concentration at which 50% inhibition was achieved eight hours post incubation, intact A431 cells, eight hours post incubation
T1 construct: The supernatant, which contained the EGFR, was collected and frozen; endogenous in cells; host or cells: A431 cells (A1: Triton X-100 lysate captured on mAb108; A2: intact cells)
Procedure: A431 cells (5×10^5) were seeded in 6-well plates and grown for 24 hours to about 90% confluence in DMEM (high glucose) containing 10% fetal calf serum (FCS) and antibiotics at 37° C. The cells were then exposed to serum-free medium, at 37° C., for 18 hours.
[…] The medium was replaced thereafter with an inhibitor/FCS-free medium and the cells were divided into two groups: cells of the first group were immediately stimulated with EGF (20 ng/ml) for 5 minutes and then washed with PBS, while cells of the second group were incubated for additional 8 hours, at 37° C. During the 8 hours period, the medium was changed three times (after 2, 4 and 8 hours). After the post-incubation period, the cells of the second group were stimulated with EGF (20 ng/ml) for 5 minutes and then washed with PBS.
(§1) Identical protein amounts from each lysate sample were loaded onto polyacrylamide gel (6% or 10%), separated by electrophoresis (Hoefer Pharmacia Biotech Inc., San Francisco, USA) and transferred to nitrocellulose membrane (power supply: EPS 500/400, Amersham Pharmacia Biotech; nitrocellulose extra blotting membranes: Sartorius AG, Goettingen, Germany). A standard high molecular weight solution was loaded as a reference. For visualization of molecular weight bands, the membrane was immersed in Ponceau reagent (0.05% Ponceau, 5% acetic acid) for a few minutes, and then washed twice with TTN (10 mM Tris pH 7.4, 0.2% TWEEN 20, 170 mM NaCl) and once with water. The membrane was blocked overnight in TTN containing 5% milk (1% fat) (blocking TTN) and incubated for 90 minutes with PY20 antiphosphotyrosine antibody (Santa Cruz Biotechnology Inc., Santa Cruz, USA) diluted 1:2,000 in blocking TTN. The membrane was then washed with TTN (3×5 minutes), incubated for 90 minutes with a horseradish peroxidase-conjugated secondary antibody (Goat anti-mouse IgG H+L, Jackson ImResearch Laboratories, Inc., diluted 1:10,000 in blocking TTN), and finally washed again with TTN (3×5 minutes).
After the incubation, the media was replaced with inhibitor/FCS-free media and the inhibition effect was measured either immediately thereafter or after 8 hours post incubation.

HER1-HER2 chimera = target: T2, HER1-HER2 chimera (Homo sapiens, UniProt P04626); test: Selective-inhibition assay in CSH12 cells (receptor phosphotyrosine, Western blot); conditions: CSH12 cells expressing HER1-HER2 chimera, 1 hour incubation, EGF stimulation
T2 construct: HER2 cytoplasmic domain generates normal mitogenic and transforming signals in a chimeric receptor; expressed in transfected cells; host or cells: NIH3T3 (CSH12 cells); the other entry of the earlier key: EGFR (P00533, Epidermal growth factor receptor)
Text: as §1

PDGFR = PDGFR (Homo sapiens, UniProt P09619); test: Selective-inhibition assay in […] cells (receptor phosphotyrosine, Western blot); conditions: […] cells expressing PDGFR, 1 hour incubation, PDGFββ stimulation
Procedure: NIH3T3 cells transformed with either the EGFR (DHER14 cells), with the HER1-HER2 chimera (CSH12 cells) or with the PDGFR (NIH/PDGFR cells), decribed by Lee et al.; 1989, Honegger et al., 1988; and Shawver et al. 1997, and A431 human epidermoid vulval carcinoma cells were grown in Dulbecco's modified Eagle's medium (DMEM) (Biological industries, Kibbuts Beit Haemek, Israel) supplemented with 10% fetal calf serum and antibiotics (penicillin […], streptomycin 100 mg/liter) at 37° C. in 5% CO2.
Selective-inhibition assay: CSH12, DHER14 and […] cells, expressing either the HER1-HER2 chimera, EGFR or PDGFR, respectively, were used for the determination of inhibitory selectivity. Cells (7.5×10^4) were grown in 6-well plates (35 mm diameter, Nalge Nunc) for 24 hours and then incubated in 0.25% FCS-containing medium for an additional 24 hours to about 90% confluence. Duplicate sets of cells were treated with the tested compounds at varying concentrations for 1 hour. The final concentration of the vehicle in the medium was 0.05% DMSO, 0.1% EtOH. After removal of the inhibitor from the medium, PBS wash (×2) and addition of 0.25% serum-containing medium to the wells, the cells were stimulated with either 20 ng/mL human EGF for 5 minutes (CSH12 and DHER14 cells) or 50 ng/ml human PDGFββ for 10 minutes ([…] cells) at 37° C. […]

Sequence of PDGFR (P09619 whole entry): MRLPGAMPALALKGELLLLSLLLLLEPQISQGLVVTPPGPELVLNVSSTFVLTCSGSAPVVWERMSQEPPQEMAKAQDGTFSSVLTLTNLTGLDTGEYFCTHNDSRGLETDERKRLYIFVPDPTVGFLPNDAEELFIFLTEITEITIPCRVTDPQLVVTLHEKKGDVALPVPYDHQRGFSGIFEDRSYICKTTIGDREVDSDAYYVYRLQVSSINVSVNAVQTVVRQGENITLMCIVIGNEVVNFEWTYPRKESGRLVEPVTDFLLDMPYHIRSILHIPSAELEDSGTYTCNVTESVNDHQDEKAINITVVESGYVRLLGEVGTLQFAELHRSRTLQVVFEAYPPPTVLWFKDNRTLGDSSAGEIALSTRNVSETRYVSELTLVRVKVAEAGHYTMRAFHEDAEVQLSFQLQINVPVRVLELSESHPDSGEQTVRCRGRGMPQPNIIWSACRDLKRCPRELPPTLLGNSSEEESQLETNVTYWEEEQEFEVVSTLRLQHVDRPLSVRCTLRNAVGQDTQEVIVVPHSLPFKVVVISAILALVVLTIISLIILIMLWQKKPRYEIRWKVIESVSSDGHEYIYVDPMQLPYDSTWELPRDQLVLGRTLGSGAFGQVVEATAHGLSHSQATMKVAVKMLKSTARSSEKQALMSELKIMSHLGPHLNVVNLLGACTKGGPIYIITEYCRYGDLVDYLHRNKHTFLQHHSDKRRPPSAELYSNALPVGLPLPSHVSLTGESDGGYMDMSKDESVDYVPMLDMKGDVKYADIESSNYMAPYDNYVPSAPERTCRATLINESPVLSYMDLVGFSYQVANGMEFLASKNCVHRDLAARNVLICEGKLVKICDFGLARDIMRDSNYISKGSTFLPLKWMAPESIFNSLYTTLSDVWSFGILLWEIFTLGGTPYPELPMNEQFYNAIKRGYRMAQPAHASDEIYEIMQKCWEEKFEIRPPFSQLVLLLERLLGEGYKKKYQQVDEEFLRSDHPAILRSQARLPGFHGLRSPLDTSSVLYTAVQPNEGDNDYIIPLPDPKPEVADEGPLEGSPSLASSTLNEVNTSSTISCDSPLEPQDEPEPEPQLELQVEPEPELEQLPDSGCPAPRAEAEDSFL
T1 sequence (P00533 25-1210): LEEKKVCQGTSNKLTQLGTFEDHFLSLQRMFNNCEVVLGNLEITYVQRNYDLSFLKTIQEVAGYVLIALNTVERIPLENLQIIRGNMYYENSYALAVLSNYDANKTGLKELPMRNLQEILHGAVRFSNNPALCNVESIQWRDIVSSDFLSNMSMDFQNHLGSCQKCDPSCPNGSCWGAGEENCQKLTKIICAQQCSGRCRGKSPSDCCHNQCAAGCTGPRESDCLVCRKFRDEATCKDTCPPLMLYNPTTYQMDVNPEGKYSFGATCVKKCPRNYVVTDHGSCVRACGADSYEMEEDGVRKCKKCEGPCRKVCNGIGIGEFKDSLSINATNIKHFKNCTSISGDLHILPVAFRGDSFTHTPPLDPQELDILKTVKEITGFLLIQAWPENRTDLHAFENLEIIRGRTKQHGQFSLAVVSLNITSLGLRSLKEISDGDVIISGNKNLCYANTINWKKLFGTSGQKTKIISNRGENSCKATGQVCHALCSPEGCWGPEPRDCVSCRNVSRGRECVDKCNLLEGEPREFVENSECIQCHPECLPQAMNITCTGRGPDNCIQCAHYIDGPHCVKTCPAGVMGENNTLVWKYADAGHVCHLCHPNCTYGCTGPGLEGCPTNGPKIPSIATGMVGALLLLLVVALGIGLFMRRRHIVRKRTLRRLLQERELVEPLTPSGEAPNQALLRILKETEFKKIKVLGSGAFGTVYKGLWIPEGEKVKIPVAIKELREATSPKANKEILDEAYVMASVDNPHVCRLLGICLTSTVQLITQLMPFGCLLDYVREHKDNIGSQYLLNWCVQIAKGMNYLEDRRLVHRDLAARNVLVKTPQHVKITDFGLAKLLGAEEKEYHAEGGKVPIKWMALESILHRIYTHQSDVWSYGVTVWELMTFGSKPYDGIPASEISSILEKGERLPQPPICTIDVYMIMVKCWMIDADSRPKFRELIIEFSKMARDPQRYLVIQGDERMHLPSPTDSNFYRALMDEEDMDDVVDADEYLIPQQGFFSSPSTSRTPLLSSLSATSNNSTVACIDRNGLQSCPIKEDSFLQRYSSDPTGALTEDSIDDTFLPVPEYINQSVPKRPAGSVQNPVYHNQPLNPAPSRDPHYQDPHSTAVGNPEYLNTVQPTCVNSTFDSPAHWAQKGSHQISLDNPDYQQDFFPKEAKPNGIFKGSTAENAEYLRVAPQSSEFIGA
T2 sequence (P04626 with tags, fused parts or gaps): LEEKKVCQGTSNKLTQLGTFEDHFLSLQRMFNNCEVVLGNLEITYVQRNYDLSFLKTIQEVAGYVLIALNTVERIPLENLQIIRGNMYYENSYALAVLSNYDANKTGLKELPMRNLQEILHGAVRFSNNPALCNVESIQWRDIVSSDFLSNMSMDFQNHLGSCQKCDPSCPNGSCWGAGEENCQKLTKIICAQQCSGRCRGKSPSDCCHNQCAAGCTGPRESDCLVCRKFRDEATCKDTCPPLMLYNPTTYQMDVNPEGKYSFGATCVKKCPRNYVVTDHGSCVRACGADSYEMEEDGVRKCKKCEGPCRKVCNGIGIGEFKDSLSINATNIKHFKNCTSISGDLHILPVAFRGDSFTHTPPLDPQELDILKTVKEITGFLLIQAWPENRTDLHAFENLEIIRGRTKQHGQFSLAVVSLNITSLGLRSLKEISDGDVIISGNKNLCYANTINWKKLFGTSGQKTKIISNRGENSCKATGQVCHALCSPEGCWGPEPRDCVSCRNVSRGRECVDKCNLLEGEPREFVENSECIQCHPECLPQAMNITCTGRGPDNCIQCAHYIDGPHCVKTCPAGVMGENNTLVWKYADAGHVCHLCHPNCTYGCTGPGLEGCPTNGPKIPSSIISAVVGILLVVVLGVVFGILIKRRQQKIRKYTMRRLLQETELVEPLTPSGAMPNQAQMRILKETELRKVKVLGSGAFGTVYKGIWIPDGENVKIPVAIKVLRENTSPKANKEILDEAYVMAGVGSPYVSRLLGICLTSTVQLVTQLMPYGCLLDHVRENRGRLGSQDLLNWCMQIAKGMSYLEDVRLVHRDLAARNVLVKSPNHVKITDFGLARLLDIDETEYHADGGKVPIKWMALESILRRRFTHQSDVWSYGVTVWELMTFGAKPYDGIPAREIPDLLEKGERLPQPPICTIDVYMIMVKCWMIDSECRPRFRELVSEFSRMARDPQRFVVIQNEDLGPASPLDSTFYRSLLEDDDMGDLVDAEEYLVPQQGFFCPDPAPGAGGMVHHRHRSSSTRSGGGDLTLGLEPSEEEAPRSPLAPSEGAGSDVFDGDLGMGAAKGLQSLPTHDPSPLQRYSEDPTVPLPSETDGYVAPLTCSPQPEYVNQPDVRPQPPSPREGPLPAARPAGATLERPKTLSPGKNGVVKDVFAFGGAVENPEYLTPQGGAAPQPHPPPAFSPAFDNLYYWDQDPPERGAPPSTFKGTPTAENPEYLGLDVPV

**Q.** What does the source list for O=C(CCl)Nc1ccc2ncnc(Nc3cc(Cl)c(Cl)cc3F)c2c1 [Compound 5, N-{4-[(4,5-Dichloro-2-fluoro-phenyl)amino]-quinazolin-6-yl}-2-chloroacetamide]?
**A.** pIC50 (EGFR-TK): 7.30 to 8.00; pIC50 (HER1-HER2 chimera): 7.30 to 7.60; pIC50 (PDGFR): < 6.00
